Columns and labels:
Sirt3 [1] = target: T1, Sirt3 (Homo sapiens, UniProt Q9NTG7); experiment: Coupled enzymatic deacetylation assay, Sirt3 with ACS2-acK642 peptide; format: biochemical
T1 sequence (Q9NTG7 114-380): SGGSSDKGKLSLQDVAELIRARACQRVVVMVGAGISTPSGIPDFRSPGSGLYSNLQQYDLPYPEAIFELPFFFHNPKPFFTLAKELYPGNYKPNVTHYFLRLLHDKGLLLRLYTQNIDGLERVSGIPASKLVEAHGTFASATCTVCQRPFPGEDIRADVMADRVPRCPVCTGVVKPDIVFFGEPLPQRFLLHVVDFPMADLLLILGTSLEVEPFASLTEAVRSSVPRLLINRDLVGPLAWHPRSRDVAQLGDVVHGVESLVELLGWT

Sirt1 = target: T2, Sirt1 (Homo sapiens, UniProt Q96EB6); experiment: Coupled enzymatic deacetylation assay, Sirt1 with p53-acK381 peptide; format: biochemical; settings: 10 and 100 μM compound
T2 sequence (Q96EB6 1-747): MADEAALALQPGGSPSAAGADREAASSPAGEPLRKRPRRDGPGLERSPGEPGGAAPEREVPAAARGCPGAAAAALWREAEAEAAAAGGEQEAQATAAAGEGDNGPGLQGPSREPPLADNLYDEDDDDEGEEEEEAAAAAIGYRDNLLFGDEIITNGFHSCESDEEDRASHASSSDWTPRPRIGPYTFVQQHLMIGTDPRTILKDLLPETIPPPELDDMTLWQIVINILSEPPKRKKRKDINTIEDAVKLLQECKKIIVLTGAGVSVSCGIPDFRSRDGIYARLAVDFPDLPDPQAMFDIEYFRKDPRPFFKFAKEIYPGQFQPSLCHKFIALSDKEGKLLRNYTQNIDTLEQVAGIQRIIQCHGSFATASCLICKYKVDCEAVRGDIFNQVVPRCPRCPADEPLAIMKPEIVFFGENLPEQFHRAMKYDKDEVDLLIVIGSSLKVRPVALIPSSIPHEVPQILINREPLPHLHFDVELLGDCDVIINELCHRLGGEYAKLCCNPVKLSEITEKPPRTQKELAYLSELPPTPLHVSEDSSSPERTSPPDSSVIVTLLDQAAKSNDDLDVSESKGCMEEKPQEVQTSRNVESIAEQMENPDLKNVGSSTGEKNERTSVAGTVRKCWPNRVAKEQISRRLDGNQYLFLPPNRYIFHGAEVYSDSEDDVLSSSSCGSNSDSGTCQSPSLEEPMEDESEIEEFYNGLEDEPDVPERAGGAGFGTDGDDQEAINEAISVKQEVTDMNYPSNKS

Sirt2 = target: T3, Sirt2 (Homo sapiens, UniProt Q8IXJ6); experiment: Coupled enzymatic deacetylation assay, Sirt2 with α-tubulin-acK25 peptide; format: biochemical; settings: coupled assay, 10 and 100 μM compound
T3 sequence (Q8IXJ6 43-356): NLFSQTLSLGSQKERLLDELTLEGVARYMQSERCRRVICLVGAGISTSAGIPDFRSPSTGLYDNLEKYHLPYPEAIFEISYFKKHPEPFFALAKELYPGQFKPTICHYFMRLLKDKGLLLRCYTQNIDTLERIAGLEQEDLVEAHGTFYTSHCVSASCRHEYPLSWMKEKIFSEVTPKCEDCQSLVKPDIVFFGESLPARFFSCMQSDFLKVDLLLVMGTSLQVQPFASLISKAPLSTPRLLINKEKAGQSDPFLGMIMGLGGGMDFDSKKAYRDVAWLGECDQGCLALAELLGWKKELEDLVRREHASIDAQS

Sirt5 [2] = target: T4, Sirt5 (Homo sapiens, UniProt Q9NXA8); experiment: Coupled enzymatic desuccinylation assay, Sirt5 with CPS1-succK537 peptide; format: biochemical
T4 sequence (Q9NXA8 34-302): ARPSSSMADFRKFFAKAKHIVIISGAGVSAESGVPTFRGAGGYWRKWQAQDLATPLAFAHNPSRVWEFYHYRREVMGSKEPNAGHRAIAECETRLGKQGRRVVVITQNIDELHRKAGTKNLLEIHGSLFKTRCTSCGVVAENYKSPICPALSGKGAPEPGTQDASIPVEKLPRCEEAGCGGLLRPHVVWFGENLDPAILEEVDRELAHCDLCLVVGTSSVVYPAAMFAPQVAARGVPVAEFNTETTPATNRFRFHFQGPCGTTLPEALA

Sirt4 = target: T5, Sirt4 (Homo sapiens, UniProt Q9Y6E7); experiment: Sirt4 activity test; format: biochemical; settings: 100 μM compound
T5 sequence (Q9Y6E7 29-314): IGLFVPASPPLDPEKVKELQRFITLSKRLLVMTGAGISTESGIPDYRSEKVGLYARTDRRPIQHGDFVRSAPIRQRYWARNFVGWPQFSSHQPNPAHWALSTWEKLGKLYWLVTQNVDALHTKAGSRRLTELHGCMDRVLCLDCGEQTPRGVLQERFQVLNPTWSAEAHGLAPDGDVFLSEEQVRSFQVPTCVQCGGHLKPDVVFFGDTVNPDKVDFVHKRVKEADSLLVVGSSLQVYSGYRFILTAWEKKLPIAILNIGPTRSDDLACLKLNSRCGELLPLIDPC

Sirt6 = Sirt6 (Homo sapiens, UniProt Q8N6T7); experiment: Sirt6 activity test; format: biochemical; settings: 100 μM compound
Chain of Sirt6 (Q8N6T7 whole entry): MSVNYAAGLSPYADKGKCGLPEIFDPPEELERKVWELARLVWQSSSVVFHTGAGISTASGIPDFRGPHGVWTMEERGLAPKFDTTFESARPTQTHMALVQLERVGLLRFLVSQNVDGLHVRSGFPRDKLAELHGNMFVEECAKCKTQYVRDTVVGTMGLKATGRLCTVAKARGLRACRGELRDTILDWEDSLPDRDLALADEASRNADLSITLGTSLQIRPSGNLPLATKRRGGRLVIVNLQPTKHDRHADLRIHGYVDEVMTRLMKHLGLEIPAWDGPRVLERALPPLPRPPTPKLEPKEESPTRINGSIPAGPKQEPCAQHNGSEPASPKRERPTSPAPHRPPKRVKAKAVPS

Sirt5 [3] = target: T4, Sirt5; experiment: MS-based desuccinylation assay, Sirt5 with CPS1-succK537; format: biochemical; settings: 100 μM compound
Sirt3 [4] = target: T1, Sirt3; experiment: Microscale thermophoresis binding to Sirt3
Sirt5 [5] = target: T4, Sirt5; experiment: NAD+ titration kinetics of Sirt5; format: biochemical; settings: in presence of 200 μM compound (without compound 1.6 ± 0.1)
GDH = GDH activity assay in MDA-MB-231 cell lysates; format: cell-based, human; settings: wild-type MDA-MB-231 cells, 50 μM, 4 or 24 h
Sirt5 [6] = target: T6, Sirt5 (Homo sapiens, UniProt Q9NXA8); experiment: PDC deacylation assay: PDHA1 desuccinylation by recombinant Sirt5; format: biochemical; settings: 100 μM compound, PDHA1 from porcine heart tissue
T6 sequence (Q9NXA8 37-310): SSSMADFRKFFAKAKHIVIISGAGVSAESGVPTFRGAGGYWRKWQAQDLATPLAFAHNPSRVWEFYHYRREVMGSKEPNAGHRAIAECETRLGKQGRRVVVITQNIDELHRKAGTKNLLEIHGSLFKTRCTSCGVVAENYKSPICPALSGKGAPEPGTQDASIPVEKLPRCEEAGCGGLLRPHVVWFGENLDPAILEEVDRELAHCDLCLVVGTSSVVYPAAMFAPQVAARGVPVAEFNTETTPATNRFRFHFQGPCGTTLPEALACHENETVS

GOT1 acetylation = GOT1 acetylation Western blot in pancreatic cancer cell lines; format: cell-based
glutaminase (GLS) = experiment: GLS activity assay in MDA-MB-231 cell lysates; format: cell-based, human; settings: MDA-MB-231 cells, 50 μM, 4 and 24 h
MDA-MB-231 cells = experiment: Ammonia level assay, MDA-MB-231 cells; format: cell-based, human; settings: 50 μM, 4 and 24 h
Sirt3 [7] = target: T1, Sirt3; experiment: MS-based deacetylation assay, Sirt3 with ACS2 peptide; format: biochemical; settings: 100 μM compound
Sirt3 [8] = target: T1, Sirt3; experiment: Sirt3-dependent deacetylation of a panel of eleven acetylated peptides; format: biochemical
Sirt5 [9] = target: T4, Sirt5; experiment: Microscale thermophoresis binding to Sirt5
Sirt3 [10] = target: T7, Sirt3 (Homo sapiens, UniProt Q9NTG7); experiment: Cellular SIRT3 deacetylase activity assay; format: cell-based; settings: MDA-MB-231 cells, 50 and 100 μM, 3 h
T7 sequence (Q9NTG7 1-399): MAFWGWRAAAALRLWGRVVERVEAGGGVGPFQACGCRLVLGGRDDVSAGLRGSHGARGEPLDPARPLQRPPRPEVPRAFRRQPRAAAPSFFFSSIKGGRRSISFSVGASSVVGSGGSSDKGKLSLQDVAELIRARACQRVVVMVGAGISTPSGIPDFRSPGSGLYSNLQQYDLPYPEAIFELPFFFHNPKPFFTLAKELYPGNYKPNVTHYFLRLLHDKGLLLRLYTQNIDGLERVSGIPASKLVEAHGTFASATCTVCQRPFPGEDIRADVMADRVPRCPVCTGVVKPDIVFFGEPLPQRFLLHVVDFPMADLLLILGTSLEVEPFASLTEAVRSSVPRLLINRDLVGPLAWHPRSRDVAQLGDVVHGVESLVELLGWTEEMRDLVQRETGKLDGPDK

GDH acetylation = experiment: GDH immunoprecipitation and Lys acetylation Western blot, MDA-MB-231 cells; format: cell-based, human; settings: 50 μM

## CCOC(=O)C1=CN(C(=O)c2ccccc2)C=C(C(=O)OCC)C1c1ccsc1 [Compound 30, Diethyl 1-Benzoyl-4-(thiophen-3-yl)-1,4-dihydropyridine-3,5-dicarboxylate]
Sirt3 [1]; coupled assay, ACS2 peptide, 10 and 100 μM compound
  Effect on Sirt3 activity (in words): no significant effects
Sirt1
  Effect on Sirt1 activity (in words): no significant effects
Sirt2
  Effect on Sirt2 activity (in words): no significant effects
Sirt5 [2]
  EC50: ~40 µM
Sirt5 [2]; 100 μM compound
  Sirt5 activation (CPS1-succK537 desuccinylation): 3- to 3.5 fold
Sirt5 [2]; titration, beyond 200 μM compound concentration
  Maximum activation of Sirt5: 5 fold
Sirt4
  Effect on Sirt4: weak, partial inhibition
Sirt6
  Effect on Sirt6: weak, partial inhibition
Sirt5 [3]
  Sirt5 activation in MS-based assay: confirmed the activation of Sirt5-dependent desuccinylation
Sirt3 [4]
  Kd: 138 ± 37 µM
Sirt5 [5]
  NAD+ kinetics vmax of Sirt5: 2.3 ± 0.1 nmol/mg/min
GDH
  GDH activity in cell lysates: decreased GDH activity
Sirt5 [6]
  Sirt5-dependent desuccinylation of PDHA1: clearly enhanced
GOT1 acetylation; S2–013 and Capan1 cell lines, 20 μM, 24 h
  GOT1 acetylation: decrease GOT1 acetylation
GOT1 acetylation; SIRT5 knockout KPC and KPCS cell lines
  Effect on GOT1 acetylation: negligible
Glutaminase (GLS)
  GLS activity in cell lysates: decreased GLS activity
MDA-MB-231 cells
  Ammonia accumulation: blocked ammonia accumulation

## CCOC(=O)C1=CN(C(=O)c2cc(OC)c(OC)c(OC)c2)C=C(C(=O)OCC)C1c1ccccc1 [Compound 31, Diethyl 4-Phenyl-1-(3,4,5-trimethoxybenzoyl)-1,4-dihydropyridine-3,5-dicarboxylate]
Sirt3 [1]; 100 μM compound
  Sirt3 activity: more than 400%
Sirt1
  Effect on Sirt1 activity (in words): no significant effects
Sirt2
  Effect on Sirt2 activity (in words): no significant effects
Sirt5 [2]; coupled assay, 10 and 100 μM compound
  Effect on Sirt5 activity (in words): no significant effects
Sirt4
  Effect on Sirt4: partial Sirt4 inhibition
Sirt6
  Effect on Sirt6: no significant effects
Sirt3 [7]
  Sirt3 activation in MS-based assay: activated Sirt3-dependent deacetylation of the ACS2 peptide
Sirt3 [8]; 10 μM compound
  Stimulation of Sirt3-dependent deacetylation of all panel substrates: weakly
Sirt3 [8]; 100 μM compound
  Stimulation of Sirt3-dependent deacetylation of all panel substrates: significantly
Sirt3 [4]
  Kd: 32 ± 7 µM
Sirt5 [9]
  Kd: 83 ± 19 µM
Sirt3 [10]
  FdL deacetylation (Sirt3) activity in cell lysates: significant increase in FdL deacetylation activity
GDH acetylation
  GDH overall Lys acetylation: decreased acetylation levels

Source: PMC9653166 (Journal of medicinal chemistry, 2022)
